Measured values reported in US4932991A, “Thiopyridine-N-oxides, thiopyridines, and thiopyrimidines as urease inhibitors” (Tennessee Valley Authority, priority 1988, dated 1990).
Entries after “also recorded” stand apart in the source; their conditions may differ.

System: soil urease
Experiment: Urea hydrolysis in bands of urea in soil (banded soil system urease inhibition test)
Type: biochemical
Conditions: for % inhibition, 3 days (as measured by percent urea unhydrolyzed) / % inhibition, 6 days (as measured by percent urea unhydrolyzed): Hastings silt loam soil, 25° C., inhibitor 41 mg/band with urea 410 mg/band (10% of urea wt/wt), two replicates; for % inhibition, 3 days (as measured by percent urea unhydrolyzed): 3 days incubation; for % inhibition, 6 days (as measured by percent urea unhydrolyzed): 6 days incubation; for urease inhibition effectiveness in soil (in words): banded soil system, three- and six-day tests, compared with PPDA
Protocol: Test compounds in Example I, infra, were evaluated in soil systems by an alternative procedure in which powdered mixtures of urea and test compounds were applied in narrow bands in the soil rather than being mixed throughout the soil. The banded configuration is not only applicable to banded applications but also results in concentration gradients of urea, urea hydrolysis products, test compounds, and test compound decomposition products similar to those in the immediate vicinity of urea granules containing test compounds. Another advantage of the banded configuration compared with mixing throughout the soil is that slightly soluble test compounds can be easily band applied, whereas it is difficult to achieve a known degree of mixing of a small quantity of slightly soluble test compound with soil. The banded configuration also enables testing for urease inhibition under realistic soil conditions prior to the development of techniques for cogranulating a wide range of test compounds with urea.
Specifics of the procedure for evaluating test compounds in Example I were as follows. Urease-active soil (Hastings silt loam) was moistened to a moisture content of 20% (dry weight basis) and preincubated at room temperature for two days. Plexiglass containers (6×6×6 cm) were one-half filled with soil and packed to a bulk density of 1.1 g/cm^3. Urea or urea plus inhibitor (thoroughly mixed) was distributed in a narrow band 6 cm long and about 0.5 cm wide on the soil surface. The containers then were filled with soil, again packing to a bulk density of 1.1 g/cm^3. The containers were incubated at 25° C. for the desired reaction period, after which the containers were frozen to about -5° C. to halt urea hydrolysis. Immediately prior to extracting the remaining urea from the soil, said soil was allowed to thaw. Soil from each container was thoroughly mixed, and a 10-g sample was extracted with 100 ml of 2M KCl containing phenylmercuric acetate to prevent urea hydrolysis during handling [L. A. Douglass, J. M. Bremner, Soil Sci. Soc. Am. Proc. 34, 859-862 (1970a)]. Urea in the extracts was determined with an automated version of the colorimetric procedure [L. A. Douglass, J. M. Bremner, Anal. Letters 3, 79-87 (1970b)].
Urease-active soil (Hastings silt loam) was moistened to a moisture content of 20% and preincubated at room temperature for two days. Plexiglass containers (6×6×6 cm) were one-half filled with soil and packed to a bulk density of 1.1 g/cm^3. Urea or urea plus inhibitor (thoroughly mixed) was distributed in a narrow band some 6 cm long and about 0.5 cm wide on the surface of the soil. The containers then were filled with soil and again packed to a bulk density of 1.1 g/cm^3. The containers were incubated at 25° C. for the desired reaction period.
The soil from each container was thoroughly mixed, and 10-g sample was extracted with 100 ml of 2M KCl containing 5 ppm phenylmercuric acetate to prevent urea hydrolysis during handling [L. A. Douglass, J. M. Bremner, Soil Sci. Soc. Am. Proc.34, 859-862 (1970); L. A. Douglass, J. M. Bremner, Anal. Letters 3, 79-87 (1970b)]. The urea in the extracts was determined colorimetrically as a measure of the unhydrolyzed urea.

| Compound | % inhibition, 3 days (as measured by percent urea unhydrolyzed) (Test Series I) [%] | % inhibition, 6 days (as measured by percent urea unhydrolyzed) (Test Series I) [%] | urease inhibition effectiveness in soil (in words) | % inhibition, 3 days (as measured by percent urea unhydrolyzed) (Test Series II) [%] | % inhibition, 6 days (as measured by percent urea unhydrolyzed) (Test Series II) [%] |
| --- | --- | --- | --- | --- | --- |
| c1ccc(SSc2ccccn2)nc1 [AT, Aldrithiol] | 42.9 | 0.7 | possesses even the smallest urease activity | – | – |
| c1ccc(-c2ccccn2)nc1 [DP, 2,2'-Dipyridyl] | 12.0 | 0.2 | – | – | – |
| O=[N+]([O-])c1ccc(SSc2ccc([N+](=O)[O-])cn2)nc1 [DTNP, 2,2-Dithio-5-nitropyridine] | 8.6 | 0.5 | – | – | – |
| [O-][n+]1ccccc1SSc1cccc[n+]1[O-] [DTPNO, 2,2-Dithiobis-pyridine-N-oxide] | 92.2 | 46.4 | as effective an inhibitor as PPDA; also recorded: excellent urease inhibition characteristics | 92.6 | 38.9 |
| Sc1ccccn1 [MP, 2-Mercaptopyridine] | – | – | excellent urease inhibitors | 80.2 | 37.8 |
| Sc1ncccn1 [MPM, 2-Mercaptopyrimidine] | – | – | excellent urease inhibitors | 72.8 | 44.6 |
| [O-][n+]1ccccc1S [MPNO, 2-Mercaptopyridine-N-Oxide] | – | – | excellent urease inhibition characteristics | 76.8 | 32.2 |
| Oc1cccnc1S [MPOL, 2-Mercapto-3-pyridinol] | – | – | significantly lower inhibition | 40.1 | 0 |
| [O-][n+]1ccccc1 [PNO, Pyridine-N-Oxide] | – | – | significantly lower inhibition | 11.3 | 0 |
| NP(N)(=O)Oc1ccccc1 [PPDA, Phenyl phosphorodiamidate] | 95.6 | 59.6 | – | 92.1 | 54.2 |
